Source: patent US20140057941A1, “Methods For Increasing Mean Corpuscular Volume” (priority 2011, published 2014)

What was measured:
Format in all cases: in vivo
[1] = system: human subjects with end-stage renal disease; assay: Mean hemoglobin levels in human subjects with end-stage renal disease, 6 week treatment; details: TIW; Compound A 1.5 mg/kg and 2.0 mg/kg or epoetin alfa; ESRD
[2] = system: human subjects with end-stage renal disease; assay: Mean corpuscular volume (MCV) in human subjects with end-stage renal disease on hemodialysis, 6 weeks TIW, no IV iron; details: ESRD; for MCV response following administration for six weeks (Table 1, in words): TIW for 6 weeks, Compound A 1.0, 1.5, 2.0 mg/kg or standard of care epoetin alfa; for Change from baseline of mean MCV over time during the 6 week treatment period (FIG. 1): TIW, Compound A 1.0, 1.5 or 2.0 mg/kg or epoetin alfa; for Mean Change from Baseline MCV at Day 43 (6 weeks) of Treatment: no IV iron
Procedure: The effect of a compound of the present invention on MCV was determined in human subjects with end-stage renal disease as follows. Subjects had been receiving stable maintenance hemodialysis for at least 4 months prior to the initiation of the present study. Additionally, subjects had been maintained on standard of care stable doses of epoetin alfa for the treatment of anemia prior to initiation of the study described herein.
In order to examine differences in the MCV response in subjects treated with a compound of the invention compared to the MCV response in subjects treated with epoetin alpha (the current standard of care), all IV iron supplementation was halted two weeks prior to treatment initiation. Administration of oral iron was allowed.
[…] Baseline MCV levels were determined prior to treatment (mean of two screening period measurements with the Day 1 measurement). MCV levels were measured weekly throughout the 6-week study period.

[3] = system: human subjects with stage 3 or stage 4 chronic kidney disease; assay: MCV in stage 3 and stage 4 chronic kidney disease patients not receiving dialysis, fixed dose, 17 weeks; details: fixed dose 50 mg or 100 mg twice weekly for 17 weeks, dose adjustments from week 5; stage 3/4 CKD not on dialysis
Procedure: In another set of experiments, the effect of compound of the present invention on MCV was determined in human subjects with stage 3 and stage 4 chronic kidney disease patients (eGFR<60 ml/min) as follows. Subjects with stage 3 or stage 4 chronic kidney disease not receiving dialysis were administered Compound A at a fixed dose of either 50 mg or 100 mg twice weekly for a period of 17 weeks. Dose adjustments were permitted from week 5 onward to correct and maintain subjects to a target hemoglobin range; however, doses were not allowed to exceed 2.2 mg/kg per dose. MCV values were measured weekly.

[4] = system: human subjects with stage 3 or stage 4 chronic kidney disease; assay: MCV in stage 3 and stage 4 chronic kidney disease patients, 4 weeks; details: stage 3/4 CKD
Procedure: In another series of experiments, the effect of a compound of the present invention on MCV was determined in stage 3 and stage 4 chronic kidney disease patients ([…]) as follows. Subjects with stage 3 or stage 4 chronic kidney disease were administered placebo or Compound A (1.5 mg/kg or 2.0 mg/kg) twice or thrice weekly for 4 weeks. MCV values were measured weekly.

[5] = system: human patients, particularly having chronic kidney disease; assay: Overall safety and efficacy of tested doses in human patients; details: 0.7 to 2.5 mg/kg administered TIW, BIW, or QW
Text: In particular embodiments, the present invention provides an efficacious therapeutic compound for treating a human subject having reduced mean corpuscular volume (MCV). In one embodiment, the invention comprises the compound [(4-hydroxy-1-methyl-7-phenoxy-isoquinoline-3-carbonyl)-amino]-acetic acid for use in methods of increasing mean corpuscular volume (MCV) in a human subject.

Epoetin alfa: erythropoiesis-stimulating agent; current standard of care for anemia, used as control [reference compound]
Changes in mean hemoglobin levels during the 6 week treatment period (FIG. 2) [1]: did not result in an increase hemoglobin levels
MCV response following administration for six weeks (Table 1, in words) [2]: showed decreases in MCV
Change from baseline of mean MCV over time during the 6 week treatment period (FIG. 1) [2]: no increase in mean MCV occurred
Mean Change from Baseline MCV at Day 43 (6 weeks) of Treatment ([2]; standard of care doses TIW, N = 10): -0.12 fL

Cc1nc(C(=O)NCC(=O)O)c(O)c2ccc(Oc3ccccc3)cc12 [Compound A, [(4 hydroxy-1-methyl-7-phenoxy-isoquinoline-3-carbonyl)-amino]-acetic acid]
Mean MCV over time (FIG. 5) [3]: mean MCV initially increased and then stabilized over time
Changes in mean hemoglobin levels during the 6 week treatment period (FIG. 2) [1]: time-dependent increase in mean hemoglobin levels
Mean MCV over time (FIG. 3) ([4]; 1.5 mg/kg or 2.0 mg/kg twice or thrice weekly for 4 weeks): mean MCV increased over time
Mean change from baseline MCV at Day 22 (FIG. 4) ([4]; 1.5 mg/kg or 2.0 mg/kg twice or thrice weekly, increase): greater than 3 fL
Efficacy of tested doses (increases in MCV) [5]: effective
Safety of tested doses [5]: safe
Mean Change from Baseline MCV at Day 43 (6 weeks) of Treatment ([2]; 1 mg/kg TIW, N = 10): +0.90 fL
Mean increase in MCV over baseline after 6 weeks of treatment ([2]; 1.3 mg/kg TIW, N=5): 2.03 fL
Mean Change from Baseline MCV at Day 43 (6 weeks) of Treatment ([2]; 1.5 mg/kg TIW, N = 9): +1.46 fL
Mean increase in MCV over baseline after 6 weeks of treatment ([2]; 1.8 mg/kg TIW, N=12): 2.27 fL
Mean Change from Baseline MCV at Day 43 (6 weeks) of Treatment ([2]; 2.0 mg/kg TIW, N = 9): +2.50 fL
MCV response following administration for six weeks (Table 1, in words) [2]: MCV increased in a dose-dependent manner
Change from baseline of mean MCV over time during the 6 week treatment period (FIG. 1) [2]: resulted in an increase in mean MCV over time
